Data published in patent US10188634B2, “3-(3H-imidazo[4,5-C]pyridin-2-yl)-1 H-pyrazolo[4,3-B]pyridines and therapeutic uses thereof” (Samumed, LLC, priority 2015, dated 2019).

Key:
Assay type in all cases: cell-based
[1] = tested on: LL29 cells (primary human fibroblasts derived from IPF patients) treated with TGF-β1, α-smooth muscle actin; assay: Inhibition of the fibrotic process: αSMA staining in TGF-β1 treated primary human fibroblasts from IPF patients (LL29 cells); conditions: Fibroblast, 96 h; for EC50: LL29 cells treated with TGF-β1 (20 ng/mL), 4 days; for inhibition at 10 µM: LL29 cells treated with TGF-β1, 4 days, read-out: percent inhibition in brackets (given for EC50 >10 μM)
[2] = tested on: SW480 colon cancer cells; assay: Cell viability assay (CellTiter-Blue) in SW480 colon cancer cells; conditions: Homo sapiens, 96 h; for inhibition at 10 µM: four days, CellTiter-Blue, read-out: percent inhibition at 10 μM (given for EC50 of >10 μM); for EC50: four days incubation, CellTiter-Blue cell viability
How it was run: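 About 2×10^3 SW480 colon cancer cells per well were exposed to compound (8-point 1:3 dilutions, 10 μM to 0.004 μM) for four days at 37 °C. Viability was read by CellTiter-Blue resazurin reduction (~3 h, Ex 560/Em 590). EC50 from nonlinear regression; above 10 μM, % inhibition at 10 μM is reported.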

[3] = tested on: IL-6 in THP-1 cells; assay: Inhibition of IL-6 in LPS-stimulated THP-1 human monocyte cells (HTRF); conditions: IL-6 HTRF; for EC50: 500 ng/mL LPS, 22 hours; for inhibition at 10 µM: LPS, read-out: percent inhibition in brackets (given for EC50 >10 μM)
How it was run: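 THP-1 cells, serum-reduced (1% FBS) for 24 h, were exposed to compound (1:3, 10-point series from 10 μM; 0.1% DMSO) for 2 h, then 500 ng/mL LPS for 22 h at 37° C. Secreted IL-6 measured by HTRF (665/620 ratio), normalised to DMSO; EC50 by four-parameter fit, else % inhibition at 10 μM.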

Compound	EC50 [1] [µM]	inhibition at 10 µM [2] [%]	EC50 [2] [µM]	EC50 [3] [µM]	inhibition at 10 µM [3] [%]	inhibition at 10 µM [1] [%]
c1cc(-c2cncc3[nH]c(-c4n[nH]c5ccc(-c6cnccn6)nc45)nc23)ccn1 [Compound 556, 5-(Pyrazin-2-yl)-3-(7-(pyridin-4-yl)-3H-imidazo[4,5-c]pyridin-2-yl)-1H-pyrazolo[4,3-b]pyridine]	0.014	13.7	> 10	> 10	0	
Cn1cc(-c2ccc3[nH]nc(-c4nc5c(-c6cccs6)cncc5[nH]4)c3n2)cn1 [Compound 656, 5-(1-Methyl-1H-pyrazol-4-yl)-3-(7-(thiophen-2-yl)-3H-imidazo[4,5-c]pyridin-2-yl)-1H-pyrazolo[4,3-b]pyridine]	> 10	1.3	> 10	> 10	14.8	46.4
CN(C)CCOc1cncc(-c2ccc3[nH]nc(-c4nc5c(-c6cccs6)cncc5[nH]4)c3n2)c1 [Compound 663, N,N-Dimethyl-2-((5-(3-(7-(thiophen-2-yl)-3H-imidazo[4,5-c]pyridin-2-yl)-1H-pyrazolo[4,3-b]pyridin-5-yl)pyridin-3-yl)oxy)ethan-1-amine]	1.22	15.5	> 10	> 10	43.8	
Cc1ccc(-c2cncc3[nH]c(-c4n[nH]c5ccc(C6=CCNCC6)nc45)nc23)s1 [Compound 686, 3-(7-(5-Methylthiophen-2-yl)-3H-imidazo[4,5-c]pyridin-2-yl)-5-(1,2,3,6-tetrahydropyridin-4-yl)-1H-pyrazolo[4,3-b]pyridine]	4.91		6.11	> 10	23.8	
Cn1cc(-c2ccc3[nH]nc(-c4nc5c(-c6cc(F)cc(CNS(C)(=O)=O)c6)cncc5[nH]4)c3n2)cn1 [Compound 720, N-(3-Fluoro-5-(2-(5-(1-methyl-1H-pyrazol-4-yl)-1H-pyrazolo[4,3-b]pyridin-3-yl)-3H-imidazo[4,5-c]pyridin-7-yl)benzyl)methanesulfonamide]	> 10	0	> 10	> 10	44.7	3.8
CS(=O)(=O)NCc1cc(F)cc(-c2cncc3[nH]c(-c4n[nH]c5ccc(-c6cncc(NC(=O)CC7CCNCC7)c6)nc45)nc23)c1 [Compound 725, N-(5-(3-(7-(3-Fluoro-5-(methylsulfonamidomethyl)phenyl)-3H-imidazo[4,5-c]pyridin-2-yl)-1H-pyrazolo[4,3-b]pyridin-5-yl)pyridin-3-yl)-2-(piperidin-4-yl)acetamide]	> 10	14.6	> 10	> 10	27.1	40.9
CN(C)CCNc1cc(F)cc(-c2cncc3[nH]c(-c4n[nH]c5ccc(-c6cncc(OCCN7CCCC7)c6)nc45)nc23)c1 [Compound 742, N^1-(3-Fluoro-5-(2-(5-(5-(2-(pyrrolidin-1-yl)ethoxy)pyridin-3-yl)-1H-pyrazolo[4,3-b]pyridin-3-yl)-3H-imidazo[4,5-c]pyridin-7-yl)phenyl)-N^2,N^2-dimethylethane-1,2-diamine]	> 10	8.2	> 10	8.86		0
CN(C)CC(=O)Nc1cncc(-c2ccc3[nH]nc(-c4nc5c(-c6cccc(F)c6)cncc5[nH]4)c3n2)c1 [Compound 925, 2-(Dimethylamino)-N-(5-(3-(7-(3-fluorophenyl)-3H-imidazo[4,5-c]pyridin-2-yl)-1H-pyrazolo[4,3-b]pyridin-5-yl)pyridin-3-yl)acetamide]	> 10	16.1	> 10	> 10	20.1	8.3
COc1cccc(-c2cncc3[nH]c(-c4n[nH]c5ccc(-c6cccnc6)nc45)nc23)c1 [Compound 949, 3-(7-(3-Methoxylphenyl)-3H-imidazo[4,5-c]pyridin-2-yl)-5-(pyridin-3-yl)-1H-pyrazolo[4,3-b]pyridine]	6.53	6.9	> 10	0.682		
COc1cccc(-c2cncc3[nH]c(-c4n[nH]c5ccc(-c6cncc(NC(=O)Cc7ccccc7)c6)nc45)nc23)c1 [Compound 955, N-(5-(3-(7-(3-methoxylphenyl)-3H-imidazo[4,5-c]pyridin-2-yl)-1H-pyrazolo[4,3-b]pyridin-5-yl)pyridin-3-yl)-2-phenylacetamide]	> 10	2.7	> 10	> 10	27.5	4.2
COc1cccc(-c2cncc3[nH]c(-c4n[nH]c5ccc(-c6cncc(NC(=O)CC(C)(C)C)c6)nc45)nc23)c1 [Compound 961, N-(5-(3-(7-(3-methoxylphenyl)-3H-imidazo[4,5-c]pyridin-2-yl)-1H-pyrazolo[4,3-b]pyridin-5-yl)pyridin-3-yl)-3,3-dimethylbutanamide]	> 10	0.4	> 10	> 10	22.5	0
COc1cccc(-c2cncc3[nH]c(-c4n[nH]c5ccc(-c6cncc(NC(=O)C7CCCCC7)c6)nc45)nc23)c1 [Compound 967, N-(5-(3-(7-(3-Methoxylphenyl)-3H-imidazo[4,5-c]pyridin-2-yl)-1H-pyrazolo[4,3-b]pyridin-5-yl)pyridin-3-yl)cyclohexanecarboxamide]	> 10	10.8	> 10	> 10	33.9	0
COc1cccc(-c2cncc3[nH]c(-c4n[nH]c5ccc(-c6cn[nH]c6)nc45)nc23)c1 [Compound 975, 3-(7-(3-Methoxylphenyl)-3H-imidazo[4,5-c]pyridin-2-yl)-5-(1H-pyrazol-4-yl)-1H-pyrazolo[4,3-b]pyridine]	> 10	4.1	> 10	> 10	0	43.2
COc1cccc(-c2cncc3[nH]c(-c4n[nH]c5ccc(-c6cncc(OC7CCNCC7)c6)nc45)nc23)c1 [Compound 980, 3-(7-(3-Methoxylphenyl)-3H-imidazo[4,5-c]pyridin-2-yl)-5-(5-(piperidin-4-yloxy)pyridin-3-yl)-1H-pyrazolo[4,3-b]pyridine]	2.72	19.6	> 10	> 10	34.1	
COc1cccc(-c2cncc3[nH]c(-c4n[nH]c5ccc(-c6cncc(O)c6)nc45)nc23)c1 [Compound 985, 5-(3-(7-(3-Methoxylphenyl)-3H-imidazo[4,5-c]pyridin-2-yl)-1H-pyrazolo[4,3-b]pyridin-5-yl)pyridin-3-ol]	2.35	7.1	> 10	1.34		
NC1CN(c2cncc(-c3ccc4[nH]nc(-c5nc6c(-c7ccc(Cl)s7)cncc6[nH]5)c4n3)n2)C1 [Compound 1023, 1-(6-(3-(7-(5-Chlorothiophen-2-yl)-3H-imidazo[4,5-c]pyridin-2-yl)-1H-pyrazolo[4,3-b]pyridin-5-yl)pyrazin-2-yl)azetidin-3-amine]	6.19	7.4	> 10	0.098		
c1cc2c(cc1-c1cncc3[nH]c(-c4n[nH]c5ccc(C6CCNCC6)nc45)nc13)OCO2 [Compound 1063, 3-(7-(Benzo[d][1,3]dioxol-5-yl)-3H-imidazo[4,5-c]pyridin-2-yl)-5-(piperidin-4-yl)-1H-pyrazolo[4,3-b]pyridine]	> 10	4.8	> 10	> 10	32.7	31.3
C1=C(c2ccc3[nH]nc(-c4nc5c(-c6ccc7c(c6)OCO7)cncc5[nH]4)c3n2)CCNC1 [Compound 1064, 3-(7-(Benzo[d][1,3]dioxol-5-yl)-3H-imidazo[4,5-c]pyridin-2-yl)-5-(1,2,3,6-tetrahydropyridin-4-yl)-1H-pyrazolo[4,3-b]pyridine]	4.03	0.1	> 10	> 10	21.1	
Cc1ncc(-c2ccc3[nH]nc(-c4nc5c(-c6cccc(F)c6)cncc5[nH]4)c3n2)s1 [Compound 1081, 5-(3-(7-(3-Fluorophenyl)-3H-imidazo[4,5-c]pyridin-2-yl)-1H-pyrazolo[4,3-b]pyridin-5-yl)-2-methylthiazole]	1.96	23.5	> 10	> 10	7.7	
Cc1cnc(-c2ccc3[nH]nc(-c4nc5c(-c6cccc(F)c6)cncc5[nH]4)c3n2)s1 [Compound 1082, 2-(3-(7-(3-Fluorophenyl)-3H-imidazo[4,5-c]pyridin-2-yl)-1H-pyrazolo[4,3-b]pyridin-5-yl)-5-methylthiazole]	> 10	11.5	> 10	> 10	14.3	0
